Laboratory results: PubChem BioAssay (NCI)
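96-well plates; 48 h exposure; 5 concentrations. Endpoints by linear interpolation between flanking doses. Not reached: highest tested concentration assigned. The concentration for full growth arrest is given as TGI.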

Columns and labels:
Experiment in all cases: growth of human tumour cells (NCI), 48 h
RPMI-8226 leukemia = system: RPMI-8226 leukemia
SN12C renal = system: SN12C renal
MDA-MB-231 breast = system: MDA-MB-231 breast
SNB-75 CNS = system: SNB-75 CNS
786-0 renal = system: 786-0 renal
SF-268 CNS = system: SF-268 CNS
MALME-3M melanoma = system: MALME-3M melanoma
NCI-H226 lung = system: NCI-H226 lung
SW-620 colon = system: SW-620 colon
NCI-H23 lung = system: NCI-H23 lung
A549 NSCLC = system: A549 NSCLC
MOLT-4 leukemia = system: MOLT-4 leukemia
HOP-62 NSCLC = system: HOP-62 NSCLC
MDA-N = system: MDA-N
SK-MEL-2 melanoma = system: SK-MEL-2 melanoma
SK-OV-3 ovarian = system: SK-OV-3 ovarian
SF-539 CNS = system: SF-539 CNS
SK-MEL-28 melanoma = system: SK-MEL-28 melanoma
UO-31 renal = system: UO-31 renal
SNB-19 CNS = system: SNB-19 CNS
K-562 leukemia = system: K-562 leukemia
MCF7 breast = system: MCF7 breast
U251 CNS = system: U251 CNS
ACHN renal = system: ACHN renal
RXF 393 renal = system: RXF 393 renal
HCT-15 colon = system: HCT-15 colon
MDA-MB-435 = system: MDA-MB-435
M14 melanoma = system: M14 melanoma
NCI-H460 lung = system: NCI-H460 lung
IGROV1 ovarian = system: IGROV1 ovarian
EKVX NSCLC = system: EKVX NSCLC
LOX IMVI melanoma = system: LOX IMVI melanoma
HT29 colon = system: HT29 colon
PC-3 prostate = system: PC-3 prostate
DU-145 prostate = system: DU-145 prostate
NCI-H522 lung = system: NCI-H522 lung
T-47D breast = system: T-47D breast
SF-295 CNS = system: SF-295 CNS
COLO 205 colon = system: COLO 205 colon
HOP-92 NSCLC = system: HOP-92 NSCLC
OVCAR-5 ovarian = system: OVCAR-5 ovarian
TK-10 renal = system: TK-10 renal
SK-MEL-5 melanoma = system: SK-MEL-5 melanoma
HCC-2998 colon = system: HCC-2998 colon
A498 renal = system: A498 renal
HCT-116 colon = system: HCT-116 colon
OVCAR-8 ovarian = system: OVCAR-8 ovarian
UACC-257 melanoma = system: UACC-257 melanoma
CAKI-1 renal = system: CAKI-1 renal
OVCAR-4 ovarian = system: OVCAR-4 ovarian
NCI/ADR-RES ovarian = system: NCI/ADR-RES ovarian
KM12 colon = system: KM12 colon
OVCAR-3 ovarian = system: OVCAR-3 ovarian
CCRF-CEM leukemia = system: CCRF-CEM leukemia
HS 578T breast = system: HS 578T breast
UACC-62 melanoma = system: UACC-62 melanoma
HL-60(TB) leukemia = system: HL-60(TB) leukemia
BT-549 breast = system: BT-549 breast

Measured: TGI

Cc1cn(CCCC2=NCCCN2)c(=O)[nH]c1=O
not listed: HL-60(TB) leukemia | BT-549 breast
> 100 µM: all other assays above

CN(CCCN=C=S)CCCN1c2ccccc2CCc2ccccc21
4.29 µM: HOP-92 NSCLC
3.46 µM: SF-539 CNS
> 100 µM: MOLT-4 leukemia | K-562 leukemia | CCRF-CEM leukemia
3.29 µM: MDA-MB-231 breast
4.03 µM: HS 578T breast
3.39 µM: RXF 393 renal
3.12 µM: ACHN renal
3.21 µM: CAKI-1 renal
3.26 µM: U251 CNS | TK-10 renal
2.9 µM: HCT-15 colon
3.38 µM: SK-MEL-2 melanoma
3.85 µM: UACC-257 melanoma
3.5 µM: KM12 colon
3.35 µM: OVCAR-5 ovarian
3.48 µM: MALME-3M melanoma
3.56 µM: OVCAR-4 ovarian
3 µM: UO-31 renal
2.67 µM: NCI/ADR-RES ovarian
3.24 µM: SF-268 CNS
2.69 µM: HCC-2998 colon
3.27 µM: MDA-MB-435
3.16 µM: A549 NSCLC | MDA-N | SK-OV-3 ovarian | M14 melanoma
3.43 µM: SK-MEL-5 melanoma | OVCAR-8 ovarian
3.92 µM: T-47D breast
3.07 µM: A498 renal
3.09 µM: HCT-116 colon
3.17 µM: SN12C renal
3.45 µM: NCI-H460 lung
3.22 µM: DU-145 prostate
2.94 µM: HT29 colon
3.11 µM: NCI-H23 lung
3.14 µM: SNB-19 CNS | OVCAR-3 ovarian
3.2 µM: UACC-62 melanoma
3.08 µM: 786-0 renal

CN(CCCNCc1ccccn1)Cc1ccccc1O
43.2 µM: UACC-62 melanoma
95.2 µM: NCI/ADR-RES ovarian
55.6 µM: NCI-H23 lung
92.2 µM: UACC-257 melanoma
51.6 µM: SK-MEL-5 melanoma
64.8 µM: TK-10 renal
54.7 µM: SF-295 CNS
42.3 µM: ACHN renal
97.8 µM: NCI-H226 lung
19.8 µM: UO-31 renal
68.5 µM: SNB-19 CNS
94.4 µM: HT29 colon | COLO 205 colon
not listed: SF-539 CNS | M14 melanoma | BT-549 breast
> 100 µM: all other assays above

Cc1ccc(-c2cc(-c3ccccc3)nc(N)n2)c(O)c1
not listed: SNB-75 CNS | NCI-H226 lung | IGROV1 ovarian | EKVX NSCLC | LOX IMVI melanoma | HS 578T breast
> 100 µM: all other assays above
